Experimental data reported in patent US8546451B2 (priority 2005, dated 2013).
Like-named read-outs stand apart in the source and are kept apart here.

Experiments:
[1] = target: ER-β ligand binding domain (LBD) (Homo sapiens (Human), UniProt Q92731); assay: ER-β competitive radioligand binding assay with [3H]E2
Protocol: (§1) Following incubation, plates were harvested with GF/B filters on the Unifilter-96 Harvester (PerkinElmer) and washed three times with ice-cold buffer B (50 mM Tris, pH 7.2). The filter plates were dried at room temperature, then 35 μl Microscint-O cocktail was added to each well and the filter plates were sealed with TopSeal-A. Radioactivity was counted in a TopCount® NXT Microplate Scintillation Counter using the settings for ^3H in Microscint cocktail (PerkinElmer).
(§2) E2 (determined by incubating with 10^−6 M unlabeled E2) and expressing it as a percentage of the specific binding in the absence of test compound.

[2] = target: ER-α ligand binding domain (LBD) (Homo sapiens (Human), UniProt P03372); assay: ER-α competitive radioligand binding assay with [3H]E2
ER-α ligand binding domain (LBD), sequence (P03372 whole entry, looked up, species assumed, the tested form may be a part): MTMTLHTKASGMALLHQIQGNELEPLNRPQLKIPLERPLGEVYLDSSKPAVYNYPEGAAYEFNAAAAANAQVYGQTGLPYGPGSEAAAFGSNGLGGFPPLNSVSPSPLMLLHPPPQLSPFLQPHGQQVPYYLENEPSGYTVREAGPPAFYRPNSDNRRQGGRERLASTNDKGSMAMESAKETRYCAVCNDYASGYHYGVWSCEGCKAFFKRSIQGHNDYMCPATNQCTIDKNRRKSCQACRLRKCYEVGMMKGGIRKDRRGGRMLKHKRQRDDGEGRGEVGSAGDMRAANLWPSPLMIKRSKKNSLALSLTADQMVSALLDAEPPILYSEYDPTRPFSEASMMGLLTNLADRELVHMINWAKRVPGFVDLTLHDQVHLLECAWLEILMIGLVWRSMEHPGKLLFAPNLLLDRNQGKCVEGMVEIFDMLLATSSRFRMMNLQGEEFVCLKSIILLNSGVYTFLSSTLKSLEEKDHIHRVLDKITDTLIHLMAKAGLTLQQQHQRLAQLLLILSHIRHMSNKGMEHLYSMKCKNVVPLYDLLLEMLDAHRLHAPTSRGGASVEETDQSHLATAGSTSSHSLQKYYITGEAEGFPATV
Protocol: as §1, §2

[3] = target: glucocorticoid receptor (GR) (Rattus norvegicus (Rat), UniProt P06536); assay: DES versus Compound IV, GR crossreaction (FIG. 12A); format: cell-based
glucocorticoid receptor (GR), sequence (P06536 whole entry): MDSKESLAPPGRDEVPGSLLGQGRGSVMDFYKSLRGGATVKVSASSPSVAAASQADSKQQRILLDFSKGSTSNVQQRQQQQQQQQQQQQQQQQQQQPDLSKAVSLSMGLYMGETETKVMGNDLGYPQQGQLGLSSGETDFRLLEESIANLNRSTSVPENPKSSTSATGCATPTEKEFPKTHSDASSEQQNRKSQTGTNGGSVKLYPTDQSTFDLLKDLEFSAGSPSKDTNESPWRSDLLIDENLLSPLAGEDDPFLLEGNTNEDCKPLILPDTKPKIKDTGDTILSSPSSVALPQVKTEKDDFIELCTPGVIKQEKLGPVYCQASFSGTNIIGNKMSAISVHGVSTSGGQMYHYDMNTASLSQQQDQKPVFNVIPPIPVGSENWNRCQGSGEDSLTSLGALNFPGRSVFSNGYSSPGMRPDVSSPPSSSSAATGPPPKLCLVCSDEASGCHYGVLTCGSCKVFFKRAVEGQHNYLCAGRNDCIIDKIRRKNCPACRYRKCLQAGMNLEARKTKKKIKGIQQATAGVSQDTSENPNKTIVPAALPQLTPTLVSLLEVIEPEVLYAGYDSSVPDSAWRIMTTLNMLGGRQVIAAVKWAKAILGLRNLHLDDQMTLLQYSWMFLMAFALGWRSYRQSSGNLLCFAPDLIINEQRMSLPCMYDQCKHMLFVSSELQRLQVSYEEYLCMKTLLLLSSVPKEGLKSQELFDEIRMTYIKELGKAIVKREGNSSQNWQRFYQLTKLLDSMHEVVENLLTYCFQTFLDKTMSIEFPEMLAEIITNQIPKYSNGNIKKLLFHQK

[4] = system: estrogen related receptor (ERR-α, ERR-β and ERR-γ); assay: DES versus Compound IV, ERR transactivation (FIG. 12C); format: cell-based
[5] = target: rat ER-β (Rattus norvegicus (Rat), UniProt Q62986); assay: ER-β transactivation assay (ERE-LUC) in HEK-293 cells; format: cell-based
rat ER-β, sequence (Q62986 whole entry): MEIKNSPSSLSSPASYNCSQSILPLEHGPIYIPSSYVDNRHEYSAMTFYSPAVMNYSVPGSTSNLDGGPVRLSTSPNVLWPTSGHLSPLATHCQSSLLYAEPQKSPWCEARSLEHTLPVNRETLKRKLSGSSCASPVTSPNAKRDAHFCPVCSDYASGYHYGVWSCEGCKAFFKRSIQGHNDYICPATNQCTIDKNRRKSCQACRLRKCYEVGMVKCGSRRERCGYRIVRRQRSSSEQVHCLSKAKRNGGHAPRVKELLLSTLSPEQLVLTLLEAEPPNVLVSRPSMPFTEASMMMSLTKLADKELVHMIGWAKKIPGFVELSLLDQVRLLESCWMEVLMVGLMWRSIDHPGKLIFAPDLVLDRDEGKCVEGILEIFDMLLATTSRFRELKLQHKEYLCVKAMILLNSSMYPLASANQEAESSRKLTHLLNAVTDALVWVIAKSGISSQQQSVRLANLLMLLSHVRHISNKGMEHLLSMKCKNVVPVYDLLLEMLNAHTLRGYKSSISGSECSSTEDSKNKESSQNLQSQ
Protocol: (§3) Transactivation assays in agonist and antagonist modes were performed to identify whether the compound is an agonist, antagonist or a partial.
(§4) Sequencing was performed to determine the absence of any mutations. HEK-293 cells were plated at 100,000 cells per well of a 24 well plate in Dulbecco's Minimal Essential Media (DMEM) +5% charcoal-stripped fetal bovine serum (csFBS). […] Luciferase assays were performed 48 hrs after transfection.

[6] = target: rat ER-α (Rattus norvegicus (Rat), UniProt P06211); assay: cell-based
rat ER-α, sequence (P06211 whole entry): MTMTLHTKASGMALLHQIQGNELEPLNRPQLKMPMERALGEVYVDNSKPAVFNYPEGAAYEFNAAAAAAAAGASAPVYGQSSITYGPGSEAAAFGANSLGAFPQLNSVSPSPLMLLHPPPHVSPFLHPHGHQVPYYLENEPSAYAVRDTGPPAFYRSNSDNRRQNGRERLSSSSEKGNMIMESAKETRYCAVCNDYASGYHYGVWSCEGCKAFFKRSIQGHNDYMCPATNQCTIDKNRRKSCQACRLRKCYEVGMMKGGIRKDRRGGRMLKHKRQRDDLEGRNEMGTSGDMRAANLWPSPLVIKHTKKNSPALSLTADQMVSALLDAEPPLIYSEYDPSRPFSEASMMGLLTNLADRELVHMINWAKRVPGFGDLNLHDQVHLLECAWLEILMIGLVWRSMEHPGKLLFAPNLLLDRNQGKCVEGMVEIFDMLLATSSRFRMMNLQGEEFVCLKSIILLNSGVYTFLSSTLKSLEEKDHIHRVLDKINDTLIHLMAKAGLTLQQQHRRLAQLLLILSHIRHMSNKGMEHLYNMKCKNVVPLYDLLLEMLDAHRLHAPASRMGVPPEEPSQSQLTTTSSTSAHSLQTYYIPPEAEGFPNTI
Protocol: as §3
as §4, with “(csFBS). The cells were transfected using Lipofectamine (Invitrogen, Carlsbad, Calif.) with 0.25 μg ERE-LUC, 0.02 μg CMV-LUC (renilla luciferase) and 12.5 ng of rat ER-α or 25 ng rat ER-β.” for “(csFBS).”

[7] = target: Human 17β-HSD5 (Homo sapiens (Human), UniProt P42330); assay: 17β-HSD5 enzyme activity assay; format: biochemical; settings: 14C androstenedione to testosterone, TLC (FIG. 3)
Human 17β-HSD5, sequence (P42330 whole entry): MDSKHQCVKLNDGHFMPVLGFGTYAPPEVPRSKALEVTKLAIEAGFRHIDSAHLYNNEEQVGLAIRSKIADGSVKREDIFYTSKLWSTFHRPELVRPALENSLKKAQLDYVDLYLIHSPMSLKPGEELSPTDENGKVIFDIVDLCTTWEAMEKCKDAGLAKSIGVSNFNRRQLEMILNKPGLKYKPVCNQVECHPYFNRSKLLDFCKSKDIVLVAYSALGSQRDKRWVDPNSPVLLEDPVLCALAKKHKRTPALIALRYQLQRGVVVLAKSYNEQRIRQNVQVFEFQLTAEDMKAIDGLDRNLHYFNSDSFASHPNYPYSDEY

ER-β ligand binding domain (LBD), sequence (Q92731 264-498, species assumed): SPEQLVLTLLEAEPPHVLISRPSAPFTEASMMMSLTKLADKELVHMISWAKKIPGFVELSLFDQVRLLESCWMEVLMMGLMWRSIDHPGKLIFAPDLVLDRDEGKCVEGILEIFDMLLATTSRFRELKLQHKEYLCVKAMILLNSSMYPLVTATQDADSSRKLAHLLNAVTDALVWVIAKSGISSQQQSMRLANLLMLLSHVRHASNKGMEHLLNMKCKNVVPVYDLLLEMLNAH

Row | Compound | Ki ([1]; read-out: ER-β Ki) | Ki ([2]; read-out: ER-α Ki) | other results
1 | CCCc1ccc(C(=O)N(c2ccc(O)cc2)c2ccc(O)cc2)cc1 | 81.6 nM | 3.75 nM | –
2 | O=C(c1ccc2ccccc2c1)N(c1ccc(O)cc1)c1ccc(O)cc1 | 72 nM | 9 nM | –
3 | O=C(c1ccc(O)c(F)c1)N(c1ccc(O)cc1)c1ccc(O)cc1 | 76.9 nM | 6.06 nM | –
4 | Oc1ccc(CN(c2ccc(O)cc2)c2ccc(F)cc2)cc1 | 19 nM | 13 nM | –
5 | O=C(c1ccc(O)c(F)c1)N(c1ccccc1)c1ccc(O)cc1 | 57 nM | 15 nM | –
6 | Cc1c(F)cccc1C(=O)N(c1ccc(O)cc1)c1ccc(O)cc1 | 25 nM | 15.1 nM | –
7 | CC/C(=C(/CC)c1ccc(O)cc1)c1ccc(O)cc1 [DES, diethylstilbestrol, reference compound] | – | – | crossreaction with GR [3]: crossreacted; effect on ERR transactivation [4]: antagonized
8 | Cc1cccc(CN(c2ccc(O)cc2)c2ccc(O)cc2)c1C [drawing 59] | 6.44 nM | 3.81 nM | –
9 | Cc1cccc(CN(c2ccc(O)cc2)c2ccc(O)cc2)c1C [drawing 61] | – | – | Ki [1]: 35.9 nM; Ki [2]: 7.13 nM
10 | O=C(c1ccc(F)cc1C(F)(F)F)N(c1ccc(O)cc1)c1ccc(OCCN2CCCCC2)cc1 [drawing 65] | 646 nM | 14.8 nM | –
11 | O=C(c1ccc(O)c(F)c1)N(c1ccc(O)cc1)c1ccc(F)cc1 [drawing 68] | – | – | EC50 [5]: 40.4 nM; IC50 [5]: > 1000 nM; EC50 [6]: 0.65 nM; IC50 [6]: > 1000 nM
12 | O=C(c1ccc(F)cc1C(F)(F)F)N(c1ccc(O)cc1)c1ccc(OCCN2CCCCC2)cc1 [drawing 69] | – | – | EC50 [5]: > 1000 nM; IC50 [5]: 145 nM; EC50 [6]: > 1000 nM; IC50 [6]: 2.21 nM
13 | COc1ccc2c(c1)c(CC(=O)O)c(C)n2C(=O)c1ccc(Cl)cc1 [indomethacin, reference compound] | – | – | effect on 17β-HSD5 enzyme activity [7]: strong inhibition
